Results on ten molecules are retold here after ChEMBL document CHEMBL1201862, “PubChem BioAssay data set” (2004).

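Step 1: Grow cells in 96-well plates. Step 2: Expose to compound for 48 hours at 5 concentrations. Step 3: Interpolate endpoints linearly; if unreached, use highest concentration. GI50 is the concentration that inhibits growth by half.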 The source made the active and inactive calls. Cut-off read from the data, not from the text of the source: active = GI50 up to about 1.1 µM and inactive = higher.

Among the test systems are CAKI-1; CCRF-CEM; COLO 205; HCC 2998; HCT-116; HCT-15; HL-60; HOP-62; IGROV-1; LOX IMVI; MOLT-4; NCI-H522; NCI/ADR-RES; RPMI-8226; SF-268; SK-MEL-5; SN12C; SW-620; UACC-257; UACC-62.
Common to all, as to experiment: growth of human tumour cells (NCI), 48 h

As for `Cc1cc(Cc2cc(Cc3cc(C)cc(C(C)(C)C)c3O)c(C)cc2C)c(O)c(C(C)(C)C)c1`, the GI50 with CAKI-1 is 19.9 µM (inactive); with CCRF-CEM, 16 µM (inactive); with COLO 205 it was 19.5 µM (inactive); in the experiment with HCC 2998 it was 13.5 µM (inactive); with HCT-116, 16.4 µM (inactive); in the experiment on HCT-15, 17.4 µM. Moreover, the GI50 was 20.9 µM (inactive) with HL-60; 17.5 µM (inactive) in the experiment with HOP-62; 17.3 µM (inactive) in the experiment on IGROV-1; 20 µM (inactive) with LOX IMVI; 16.9 µM (inactive) in the experiment with MOLT-4; 14.3 µM (inactive) in the experiment on NCI-H522. In addition, the GI50 in the experiment on NCI/ADR-RES is 17.9 µM (inactive); in the experiment on RPMI-8226, 20 µM (inactive); in the experiment with SF-268, 15.9 µM (inactive); with SK-MEL-5, 16.6 µM (inactive); with SN12C, 16.6 µM (inactive); with SW-620, 17.9 µM (inactive). The figures for the GI50 in the experiment on UACC-257 and with UACC-62 were 16.2 µM (inactive) and 13.4 µM (inactive), respectively.

Consider `CCOC(=O)c1cc2c([N+](=O)[O-])c(NC(C)=O)ccc2s1`, for which the GI50 is 41.6 µM (inactive) with CAKI-1; 53 µM (inactive) in the experiment on CCRF-CEM; 34.8 µM (inactive) in the experiment with COLO 205; > 100 µM (inactive) in the experiment with HCC 2998; 87.9 µM (inactive) in the experiment with HCT-116; 86.9 µM in the experiment on HCT-15. For the same molecule, the GI50 with HL-60 was 31.7 µM (inactive); in the experiment with HOP-62, 90.2 µM (inactive); in the experiment with IGROV-1, 72.9 µM (inactive); with LOX IMVI, 60.4 µM (inactive); in the experiment on MOLT-4, 31.4 µM (inactive); with NCI-H522, 34.2 µM (inactive). Further, the GI50 with NCI/ADR-RES was 55.2 µM (inactive); in the experiment with RPMI-8226, 24.4 µM (inactive); in the experiment on SF-268, 50.7 µM (inactive); with SK-MEL-5 it was 39.4 µM (inactive); in the experiment on SN12C it was 92 µM (inactive); in the experiment with SW-620, > 100 µM (inactive). Also, the GI50 in the experiment on UACC-257 is > 100 µM (inactive); in the experiment with UACC-62, 66.7 µM (inactive).

As for `CSCCC(N)P(C)(=O)O` (centres undefined), the GI50 in the experiment on CAKI-1 is > 100 µM (inactive); in the experiment on CCRF-CEM, > 100 µM (inactive); in the experiment with COLO 205, > 100 µM (inactive); with HCC 2998, > 100 µM (inactive); in the experiment on HCT-116, > 100 µM (inactive); with HCT-15, greater than 100 µM. Further, the GI50 in the experiment on HL-60, in the experiment with HOP-62, in the experiment on IGROV-1, in the experiment on LOX IMVI, with MOLT-4 and in the experiment on NCI-H522 was > 100 µM (inactive) each time. Besides, the GI50 in the experiment with NCI/ADR-RES, with RPMI-8226, in the experiment with SF-268, with SK-MEL-5, in the experiment with SN12C and with SW-620 was > 100 µM (inactive) throughout. Also, the GI50 in the experiment on UACC-257 and in the experiment with UACC-62 was > 100 µM (inactive) each time.

For the molecule `c1cc2nnc1SCCCSc1ccc(nn1)SCCCS2`, the GI50 in the experiment on CAKI-1 was > 45.4 µM (inactive); with CCRF-CEM, > 21.2 µM (inactive); with COLO 205, > 47 µM (inactive); in the experiment with HCC 2998, > 37.8 µM (inactive); with HCT-116, 17.6 µM (inactive); in the experiment on HL-60, > 19.9 µM (inactive). The GI50 is 16 µM (inactive) in the experiment on HOP-62; > 36.7 µM (inactive) in the experiment with IGROV-1; > 21.9 µM (inactive) in the experiment with LOX IMVI; > 20.8 µM (inactive) with MOLT-4; > 100 µM (inactive) with NCI-H522; > 20.5 µM (inactive) in the experiment with NCI/ADR-RES. Also, the GI50 is > 25.3 µM (inactive) in the experiment on RPMI-8226; 22.2 µM (inactive) with SF-268; 29.1 µM (inactive) in the experiment on SK-MEL-5; > 35.8 µM (inactive) in the experiment with SN12C; > 53.3 µM (inactive) in the experiment on SW-620; > 39.9 µM (inactive) with UACC-257. The GI50 in the experiment on UACC-62 was > 25.8 µM (inactive).

On to `O=[N+]([O-])C(/C=C(\Cl)[N+](=O)[O-])=C1Nc2ccccc2N1`, for which the GI50 in the experiment with CAKI-1 was 22.1 µM (inactive); in the experiment with CCRF-CEM, 34.8 µM (inactive); in the experiment on COLO 205 it was 30.5 µM (inactive); with HCC 2998 it was > 100 µM (inactive); with HCT-116, 50.1 µM (inactive); in the experiment with HCT-15 it was 59.4 µM. Also, the GI50 was 45.8 µM (inactive) with HL-60; > 100 µM (inactive) in the experiment with HOP-62; 64.7 µM (inactive) in the experiment on IGROV-1; 34.8 µM (inactive) in the experiment with LOX IMVI; 37.1 µM (inactive) with MOLT-4; > 100 µM (inactive) with NCI-H522. For the same molecule, the GI50 was > 100 µM (inactive) in the experiment on NCI/ADR-RES; 44.3 µM (inactive) in the experiment on RPMI-8226; 57.1 µM (inactive) with SF-268; 70.8 µM (inactive) in the experiment with SK-MEL-5; 39.7 µM (inactive) with SN12C; > 100 µM (inactive) in the experiment on SW-620. Further, the GI50 with UACC-257 was 33.3 µM (inactive); in the experiment on UACC-62, 33.4 µM (inactive).

`C=CCN1C(=O)/C(=C/c2ccc(OC)cc2)NC1=S`: the GI50 is > 100 µM (inactive) in the experiment with CAKI-1; < 0.01 µM (active) in the experiment on CCRF-CEM; > 100 µM (inactive) in the experiment on COLO 205; > 100 µM (inactive) with HCC 2998; 48 µM (inactive) in the experiment on HCT-116; greater than 100 µM with HCT-15. For the same molecule, the GI50 is 0.0355 µM (active) with HL-60; > 100 µM (inactive) in the experiment with HOP-62; > 100 µM (inactive) in the experiment on IGROV-1; 56.1 µM (inactive) in the experiment on LOX IMVI; 4.59 µM (inactive) with MOLT-4; 41.6 µM (inactive) with NCI-H522. The GI50 in the experiment with NCI/ADR-RES is > 100 µM (inactive); in the experiment with RPMI-8226, 35.2 µM (inactive); in the experiment on SF-268 it was > 100 µM (inactive); in the experiment with SK-MEL-5 it was 30.5 µM (inactive); in the experiment with SN12C, > 100 µM (inactive); in the experiment on SW-620, > 100 µM (inactive). Moreover, the results for the GI50 in the experiment on UACC-257 and in the experiment on UACC-62 were 27.9 µM (inactive) and 97.7 µM (inactive), respectively.

In the case of `O=CN1CCC23CC(O)CCC2C1Cc1cc(Oc2nnnn2-c2ccccc2)cc(O)c13` (centres undefined), the GI50 in the experiment with CAKI-1 was > 100 µM (inactive); in the experiment with CCRF-CEM, 65.5 µM (inactive); with COLO 205 it was 32.9 µM (inactive); with HCC 2998 it was > 100 µM (inactive); with HCT-116, > 100 µM (inactive); in the experiment with HCT-15, 80 µM. The GI50 was 52.1 µM (inactive) with HL-60; > 100 µM (inactive) in the experiment with HOP-62; 37.8 µM (inactive) with IGROV-1; 57.3 µM (inactive) in the experiment with LOX IMVI; 48.9 µM (inactive) in the experiment on MOLT-4; 91.4 µM (inactive) with NCI-H522. Besides, the GI50 with NCI/ADR-RES is > 100 µM (inactive); in the experiment on RPMI-8226, 93.3 µM (inactive); in the experiment on SF-268 it was > 100 µM (inactive); in the experiment with SK-MEL-5, 47.2 µM (inactive); in the experiment with SN12C, > 100 µM (inactive); in the experiment on SW-620, > 100 µM (inactive). Moreover, the GI50 in the experiment with UACC-257 was > 100 µM (inactive); in the experiment with UACC-62, 65.2 µM (inactive).

As to `Cc1nc2cccc(F)c2c(=O)n1C1CCCCNC1=O` (centres undefined), the GI50 in the experiment on CAKI-1 is > 10 µM (inactive); with CCRF-CEM, > 10 µM (inactive); in the experiment with COLO 205, > 10 µM (inactive); in the experiment with HCC 2998 it was > 10 µM (inactive); in the experiment with HCT-116, > 10 µM (inactive); with HCT-15 it was greater than 10 µM. In addition, the GI50 in the experiment with HL-60, in the experiment with HOP-62, in the experiment with IGROV-1, in the experiment with LOX IMVI, with MOLT-4 and in the experiment on NCI-H522 was > 10 µM (inactive) throughout. In addition, the GI50 in the experiment with NCI/ADR-RES, with RPMI-8226, with SF-268, in the experiment with SK-MEL-5, in the experiment on SN12C and with SW-620 was > 10 µM (inactive) throughout. In addition, the GI50 in the experiment on UACC-257 and in the experiment with UACC-62 was > 10 µM (inactive) in each case.

`C=C(C)C(=O)O[C@H]1C[C@@]23O[C@@H]2CCC(=C[C@H]2OC(=O)C(=C)[C@H]12)COC3O` (some centres undefined): the GI50 in the experiment on CAKI-1 was > 100 µM (inactive); in the experiment with CCRF-CEM it was 17.2 µM (inactive); in the experiment with COLO 205, 21.2 µM (inactive); in the experiment with HCC 2998, 69.3 µM (inactive); in the experiment on HCT-116, 18.9 µM (inactive); in the experiment with HCT-15, 19.5 µM. In addition, the GI50 with HL-60 was 14.7 µM (inactive); with HOP-62, > 100 µM (inactive); in the experiment on IGROV-1, > 100 µM (inactive); in the experiment with LOX IMVI, 14.9 µM (inactive); in the experiment on MOLT-4 it was 28.7 µM (inactive); in the experiment on NCI-H522 it was 14.4 µM (inactive). Besides, the GI50 in the experiment on NCI/ADR-RES was 44.6 µM (inactive); in the experiment with RPMI-8226, 23.4 µM (inactive); in the experiment on SF-268, > 100 µM (inactive); with SK-MEL-5, > 100 µM (inactive); in the experiment with SN12C it was 49 µM (inactive); in the experiment with SW-620, 17.9 µM (inactive). The GI50 is > 100 µM (inactive) in the experiment with UACC-257 and 54.1 µM (inactive) with UACC-62.

On to `CN(C)CCNC(=O)c1ccc(NCCCN(C)CCCNc2ccc(C(=O)NCCN(C)C)c3nc4ccccc4c(O)c23)c2c(O)c3ccccc3nc12`, for which the GI50 in the experiment on CAKI-1 was 0.501 µM (active); in the experiment on CCRF-CEM, < 0.012 µM (active); with COLO 205 it was < 0.0109 µM (active); in the experiment on HCC 2998, < 0.01 µM (active); with HCT-116, < 0.01 µM (active); in the experiment on HCT-15, 0.486 µM. In addition, the GI50 is < 0.0229 µM (active) in the experiment on HL-60; < 0.01 µM (active) in the experiment with HOP-62; < 0.01 µM (active) in the experiment on IGROV-1; < 0.01 µM (active) with LOX IMVI; < 0.01 µM (active) in the experiment on MOLT-4; < 0.01 µM (active) with NCI-H522. The GI50 in the experiment with NCI/ADR-RES was 1.8 µM (inactive); in the experiment with RPMI-8226, < 0.01 µM (active); with SF-268, < 0.01 µM (active); with SK-MEL-5, 0.158 µM (active); in the experiment with SN12C, < 0.01 µM (active); in the experiment with SW-620 it was 0.0171 µM (active). Further, the GI50 in the experiment with UACC-257 was 0.185 µM (active); with UACC-62, 0.0525 µM (active).
